Experimental data: patent publication US5948785A, “Heterocyclic amide compounds and pharmaceutical use of the same” (The Green Cross Corporation, priority 1995, dated 1999)

Molecular target: T1, human heart chymase (Homo sapiens, UniProt P23946)
T1 sequence (P23946 22-247): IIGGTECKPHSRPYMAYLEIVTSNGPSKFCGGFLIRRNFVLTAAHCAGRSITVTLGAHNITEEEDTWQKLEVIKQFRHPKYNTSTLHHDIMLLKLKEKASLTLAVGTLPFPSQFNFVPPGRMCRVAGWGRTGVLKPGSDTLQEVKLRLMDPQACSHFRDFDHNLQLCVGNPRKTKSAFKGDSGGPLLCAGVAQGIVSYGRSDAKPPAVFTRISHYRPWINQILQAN
Assay: Inhibitory activity on amidase activity of human heart chymase
Assay type: biochemical
Conditions: 5 nM chymase; succinyl-alanyl-alanyl-prolyl-phenylalanine-p-nitroanilide 2.5 mM; pH 9.0; Easson-Stedman plot; read-out: K^i (human heart chymase inhibitory activity)
Method: The effectiveness of the inhibitory activity of compound (I) of the present invention was evaluated based on the inhibitory activity on amidase activity of human heart chymase, which was determined as in the following.
The inhibitory activity was quantitatively determined through variation in fractional residual activity of the enzyme caused by the inventive compound in defined serial concentration (<×1, <×10, <×100-fold equivalents) relative to 5 nM chymase in the presence of synthetic substrate, succinyl-alanyl-alanyl-prolyl-phenylalanine-p-nitroanilide (final concentration 2.5 mM). The inhibitory effect was analyzed by least square regression of Easson-Stedman plot (Proc. Roy. Soc. B. 1936, 121, p. 141) utilizing bimolecular equilibrium reaction linearization formula. The inhibitory activity was evaluated by the apparent inhibitory constant (Kiapp) obtained by this analysis and inhibitory constant (Ki) calculated from final substrate concentration in the reaction mixture and Km values separately determined. The quantitative determination of initial rate of the enzyme reaction was spectrophotometrically detected in terms of an increased amount of p-nitroaniline at 405 nm produced by hydrolysis of the substrate. The chymase inhibitory activity of the compound of the present invention was calculated as ratio of residual activity in the presence of inhibitor relative to enzyme activity in the absence of inhibitor, and incorporation of the determination values was completed at a level less than initial rate guarantee absorbance at a concentration of the substrate used for the enzyme, after which analysis was performed.
The reaction mixture consisted of an Na2 B4 O7 (100 mM)-KH2 PO4 (50 mM) buffer (pH 9.0, 120 μl) containing 0.1% Triton-X100, the inventive compound dissolved in 20 μl of 10% dimethyl sulfoxide (DMSO), 10% bovine serum albumin dissolved in 20 μl of the same buffer, substrate dissolved in 20 μl of DMSO, and 20 μl of chymase, thus amounting to 200 μl in total.
Starting with the absorbance immediately after addition of the enzyme, increases in absorbance were recorded as a progressive curve taken precisely at equal time intervals.
From the above data, the difference between absorbances at completion of the reaction and immediately after addition was used to quantitatively determine the residual activity of the sample added with the inhibitor relative to a control wherein the inhibitor was not added. Alternatively, reaction rates of the control and the sample added with the inhibitor were calculated for certain time period (≥20 min) with successive shift (every 10 to 30 minutes) of the period, and the residual activity ratio was quantitatively determined and analyzed from the respective reaction rates averaged through the entire reaction time.

| Ki | SMILES |
| --- | --- |
| 4.8 µM | Cc1cccc(-c2ncc(NC(=O)OCc3ccccc3)c(=O)n2CC(=O)NC(Cc2ccccc2)C(=O)C(F)(F)F)c1 (stereo not drawn) [Example 7, 2-[5-benzyloxycarbonylamino-6-oxo-2-(m-tolyl)-1,6-dihydro-1-pyrimidyl]-N-(1-benzyl-3,3,3-trifluoro-2-oxopropyl)-acetamide] |
| 8.7 µM | Cc1ccc(-c2ncc(NC(=O)OCc3ccccc3)c(=O)n2CC(=O)NC(Cc2ccccc2)C(=O)C(F)(F)F)cc1 (stereo not drawn) [Example 5, 2-[5-benzyloxycarbonylamino-6-oxo-2-(p-tolyl)-1,6-dihydro-1-pyrimidyl]-N-(1-benzyl-3,3,3-trifluoro-2-oxopropyl)-acetamide] |
| 4.1 µM | Nc1cnc(-c2ccc(F)cc2)n(CC(=O)NC(Cc2ccccc2)C(=O)C(F)(F)F)c1=O (stereo not drawn) [Example 4, 2-[5-amino-2-(4-fluorophenyl)-6-oxo-1,6-dihydro-1-pyrimidyl]-N-(1-benzyl-3,3,3-trifluoro-2-oxopropyl)acetamide] |

The next lines start with the molecule.

| SMILES | Ki |
| --- | --- |
| Nc1cnc(-c2ccccc2)n(CC(=O)NC(Cc2ccccc2)C(=O)C(F)(F)F)c1=O (stereo not drawn) [Example 2, 2-(5-amino-6-oxo-2-phenyl-1,6-dihydro-1-pyrimidyl)-N-(1-benzyl-3,3,3-trifluoro-2-oxopropyl)acetamide] | 7.2 µM |
| O=C(Cn1c(-c2ccc(F)cc2)ncc(NC(=O)OCc2ccccc2)c1=O)NC(Cc1ccccc1)C(=O)C(F)(F)F (stereo not drawn) [Example 3, 2-[5-benzyloxycarbonylamino-2-(4-fluorophenyl)-6-oxo-1,6-dihydro-1-pyrimidyl]-N-(1-benzyl-3,3,3-trifluoro-2-oxopropyl)acetamide] | 5.6 µM |
| Cc1ccc(-c2ncc(N)c(=O)n2CC(=O)NC(Cc2ccccc2)C(=O)C(F)(F)F)cc1 (stereo not drawn) [Example 6, 2-[5-amino-6-oxo-2-(p-tolyl)-1,6-dihydro-1-pyrimidyl]-N-(1-benzyl-3,3,3-trifluoro-2-oxopropyl)acetamide] | 7 µM |
